Reference: patent US10597388B2, “Pyridazinone herbicides” (FMC CORPORATION, priority 2014, dated 2020)

Tests used:
Assay type in all cases: in vivo
kochia (Kochia scoparia) = experiment: Test A greenhouse herbicide test, pre- and postemergence
How it was run: (§1)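 Seeds in loam–sand blend received a preemergence directed soil spray; plants at 2–10 cm, one- to two-leaf stage, received postemergence sprays. Compounds in a non-phytotoxic solvent with surfactant. After about 10 d in a greenhouse, injury rated visually versus untreated controls on a 0–100 scale (100 = complete control).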

[1] = system: ragweed (common ragweed, Ambrosia elatior); experiment: as above
How it was run: as §1

[2] = system: foxtail, giant (giant foxtail, Setaria faberii); experiment: as above
How it was run: as §1

[3] = system: wheat (Triticum aestivum); experiment: as above; settings: Postemergence
How it was run: as §1

[4] = system: pigweed (Amaranthus retroflexus); experiment: as above
How it was run: as §1

[5] = system: velvetleaf (Abutilon theophrasti); experiment: Test C greenhouse herbicide test, pre- and postemergence
How it was run: (§2)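 Pre- and postemergence greenhouse screen; values are visual control ratings, 0 meaning no effect and 100 complete kill, assigned relative to untreated plants after 13 to 15 d.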

[6] = system: blackgrass (Alopecurus myosuroides); experiment: as above
How it was run: as §2

[7] = system: pigweed (Amaranthus retroflexus); experiment: as above
How it was run: as §2

corn (Zea mays) = experiment: as above
How it was run: as §2

[8] = system: ryegrass, Italian (Italian ryegrass, Lolium multiflorum); experiment: as above
How it was run: as §2

[9] = system: morningglory (Ipomoea coccinea); experiment: as above
How it was run: as §2

[10] = Postemergence, 125 g ai/ha, 0 to 100 scale where 0 is no effect and 100 is complete control
[11] = Postemergence, 500 g ai/ha, visual rating after approx. 10 d, 0 to 100 scale (0 no effect, 100 complete control)
[12] = Preemergence, 125 g ai/ha, 0 to 100 scale where 0 is no effect and 100 is complete control
[13] = Preemergence, 500 g ai/ha, 0 to 100 scale where 0 is no effect and 100 is complete control
[14] = 125 g ai/ha, 0 to 100 scale where 0 is no effect and 100 is complete control
[15] = 500 g ai/ha, visual rating after approx. 10 d, 0 to 100 scale (0 no effect, 100 complete control)
[16] = Postemergence, 31 g ai/ha, scale 0 to 100 (0 no effect, 100 complete control)
[17] = Postemergence, 125 g ai/ha, scale 0 to 100, 0 is no effect, 100 is complete control
[18] = Postemergence, 250 g ai/ha, scale 0 to 100, 0 no effect, 100 complete control, 13 to 15 d
[19] = Preemergence, 31 g ai/ha, scale 0 to 100, 0 is no effect, 100 is complete control
[20] = Preemergence, 62 g ai/ha, scale 0 to 100, 0 is no effect, 100 is complete control
[21] = Preemergence, 125 g ai/ha, scale 0 to 100, 0 is no effect, 100 is complete control
[22] = Preemergence, 250 g ai/ha, scale 0 to 100, 0 no effect, 100 complete control
[23] = postemergence, 62 g ai/ha, scale 0 to 100, 0 no effect, 100 complete control

CCCC(=O)Oc1c(C)nn(C)c(=O)c1-c1c(CC)sc2ccc(C)cc12 [Compound 107]
Plant response rating, Kochia (kochia (Kochia scoparia); [10]): 80
Plant response rating, Kochia (kochia (Kochia scoparia); [11]): 90
Kochia plant response rating (kochia (Kochia scoparia); [12]): 20
Plant response rating, Kochia (kochia (Kochia scoparia); [13]): 90
Plant response rating, Ragweed [1, 10]: 90
Plant response rating, Ragweed [1, 11]: 90
Ragweed plant response rating [1, 12]: 90
Plant response rating, Ragweed [1, 13]: 100
Plant response rating, Foxtail, Giant [2, 10]: 70
Plant response rating, Foxtail, Giant [2, 11]: 90
Foxtail, Giant plant response rating [2, 12]: 70
Plant response rating, Foxtail, Giant [2, 13]: 100
Plant response rating, Wheat [3, 14]: 30
Plant response rating, Wheat [3, 15]: 20
Plant response rating, Pigweed [4, 10]: 90
Plant response rating, Pigweed [4, 11]: 90
Pigweed plant response rating [4, 12]: 100
Plant response rating, Pigweed [4, 13]: 100
Plant response rating, Velvetleaf [5, 16]: 75
Plant response rating, Velvetleaf [5, 17]: 95
Plant response rating, Velvetleaf [5, 18]: 100
Plant response rating, Velvetleaf [5, 19]: 30
Plant response rating, Velvetleaf [5, 20]: 60
Plant response rating, Velvetleaf [5, 21]: 85
Velvetleaf plant response rating [5, 22]: 90
Plant response rating, Blackgrass [6, 16]: 0
Plant response rating, Blackgrass [6, 17]: 5
Plant response rating, Blackgrass [6, 18]: 30
Plant response rating, Blackgrass [6, 19]: 0
Plant response rating, Blackgrass [6, 20]: 5
Plant response rating, Blackgrass [6, 21]: 10
Blackgrass plant response rating [6, 22]: 10
Blackgrass plant response rating [6, 23]: 5
Plant response rating, Pigweed [7, 16]: 85
Plant response rating, Pigweed [7, 17]: 98
Plant response rating, Pigweed [7, 18]: 98
Plant response rating, Pigweed [7, 19]: 100
Plant response rating, Pigweed [7, 20]: 100
Plant response rating, Pigweed [7, 21]: 100
Pigweed plant response rating [7, 22]: 100
Plant response rating, Corn (corn (Zea mays); [16]): 5
Plant response rating, Corn (corn (Zea mays); [17]): 20
Plant response rating, Corn (corn (Zea mays); [18]): 15
Plant response rating, Corn (corn (Zea mays); [19]): 0
Plant response rating, Corn (corn (Zea mays); [20]): 0
Plant response rating, Corn (corn (Zea mays); [21]): 10
Corn plant response rating (corn (Zea mays); [22]): 15
Corn plant response rating (corn (Zea mays); [23]): 10
Plant response rating, Ryegrass, Italian [8, 16]: 40
Plant response rating, Ryegrass, Italian [8, 17]: 60
Plant response rating, Ryegrass, Italian [8, 18]: 90
Plant response rating, Ryegrass, Italian [8, 19]: 15
Plant response rating, Ryegrass, Italian [8, 20]: 35
Plant response rating, Ryegrass, Italian [8, 21]: 35
Ryegrass, Italian plant response rating [8, 22]: 30
Plant response rating, Morningglory [9, 16]: 95
Plant response rating, Morningglory [9, 17]: 98
Plant response rating, Morningglory [9, 18]: 100
Plant response rating, Morningglory [9, 19]: 80
Plant response rating, Morningglory [9, 20]: 85
Plant response rating, Morningglory [9, 21]: 95
Morningglory plant response rating [9, 22]: 98

CC(=O)Oc1c(C)nn(C)c(=O)c1-c1c(C)sc2ccc(Cl)cc12 [Compound 108]
Plant response rating, Kochia (kochia (Kochia scoparia); [10]): 90
Plant response rating, Kochia (kochia (Kochia scoparia); [11]): 100
Kochia plant response rating (kochia (Kochia scoparia); [12]): 90
Plant response rating, Kochia (kochia (Kochia scoparia); [13]): 100
Plant response rating, Ragweed [1, 10]: 70
Plant response rating, Ragweed [1, 11]: 100
Ragweed plant response rating [1, 12]: 90
Plant response rating, Ragweed [1, 13]: 100
Plant response rating, Foxtail, Giant [2, 10]: 60
Plant response rating, Foxtail, Giant [2, 11]: 90
Foxtail, Giant plant response rating [2, 12]: 90
Plant response rating, Foxtail, Giant [2, 13]: 100
Plant response rating, Wheat [3, 14]: 0
Plant response rating, Wheat [3, 15]: 20
Plant response rating, Pigweed [4, 10]: 90
Plant response rating, Pigweed [4, 11]: 100
Pigweed plant response rating [4, 12]: 100
Plant response rating, Pigweed [4, 13]: 100
Plant response rating, Velvetleaf [5, 16]: 70
Plant response rating, Velvetleaf [5, 17]: 100
Plant response rating, Velvetleaf [5, 18]: 100
Plant response rating, Velvetleaf [5, 19]: 50
Plant response rating, Velvetleaf [5, 20]: 75
Plant response rating, Velvetleaf [5, 21]: 85
Velvetleaf plant response rating [5, 22]: 90
Plant response rating, Blackgrass [6, 16]: 15
Plant response rating, Blackgrass [6, 17]: 35
Plant response rating, Blackgrass [6, 18]: 55
Plant response rating, Blackgrass [6, 19]: 10
Plant response rating, Blackgrass [6, 20]: 0
Plant response rating, Blackgrass [6, 21]: 60
Blackgrass plant response rating [6, 22]: 85
Blackgrass plant response rating [6, 23]: 35
Plant response rating, Pigweed [7, 16]: 90
Plant response rating, Pigweed [7, 17]: 98
Plant response rating, Pigweed [7, 18]: 98
Plant response rating, Pigweed [7, 19]: 100
Plant response rating, Pigweed [7, 20]: 100
Plant response rating, Pigweed [7, 21]: 100
Pigweed plant response rating [7, 22]: 100
Plant response rating, Corn (corn (Zea mays); [16]): 5
Plant response rating, Corn (corn (Zea mays); [17]): 25
Plant response rating, Corn (corn (Zea mays); [18]): 30
Plant response rating, Corn (corn (Zea mays); [19]): 5
Plant response rating, Corn (corn (Zea mays); [20]): 10
Plant response rating, Corn (corn (Zea mays); [21]): 5
Corn plant response rating (corn (Zea mays); [22]): 15
Corn plant response rating (corn (Zea mays); [23]): 40
Plant response rating, Ryegrass, Italian [8, 16]: 90
Plant response rating, Ryegrass, Italian [8, 17]: 90
Plant response rating, Ryegrass, Italian [8, 18]: 90
Plant response rating, Ryegrass, Italian [8, 19]: 60
Plant response rating, Ryegrass, Italian [8, 20]: 85
Plant response rating, Ryegrass, Italian [8, 21]: 90
Ryegrass, Italian plant response rating [8, 22]: 95
Plant response rating, Morningglory [9, 16]: 98
Plant response rating, Morningglory [9, 17]: 98
Plant response rating, Morningglory [9, 18]: 100
Plant response rating, Morningglory [9, 19]: 80
Plant response rating, Morningglory [9, 20]: 90
Plant response rating, Morningglory [9, 21]: 98
Morningglory plant response rating [9, 22]: 98

CCC(=O)Oc1c(C)nn(C)c(=O)c1-c1ccc(F)c2ccccc12 [Compound 113]
Plant response rating, Kochia (kochia (Kochia scoparia); [10]): 100
Plant response rating, Kochia (kochia (Kochia scoparia); [11]): 100
Kochia plant response rating (kochia (Kochia scoparia); [12]): 90
Plant response rating, Kochia (kochia (Kochia scoparia); [13]): 100
Plant response rating, Ragweed [1, 10]: 90
Plant response rating, Ragweed [1, 11]: 100
Ragweed plant response rating [1, 12]: 70
Plant response rating, Ragweed [1, 13]: 90
Plant response rating, Foxtail, Giant [2, 10]: 40
Plant response rating, Foxtail, Giant [2, 11]: 90
Foxtail, Giant plant response rating [2, 12]: 70
Plant response rating, Foxtail, Giant [2, 13]: 100
Plant response rating, Wheat [3, 14]: 30
Plant response rating, Wheat [3, 15]: 70
Plant response rating, Pigweed [4, 10]: 90
Plant response rating, Pigweed [4, 11]: 100
Pigweed plant response rating [4, 12]: 100
Plant response rating, Pigweed [4, 13]: 100
Plant response rating, Velvetleaf [5, 16]: 70
Plant response rating, Velvetleaf [5, 17]: 90
Plant response rating, Velvetleaf [5, 18]: 98
Plant response rating, Velvetleaf [5, 19]: 60
Plant response rating, Velvetleaf [5, 20]: 95
Plant response rating, Velvetleaf [5, 21]: 98
Velvetleaf plant response rating [5, 22]: 100
Plant response rating, Blackgrass [6, 16]: 15
Plant response rating, Blackgrass [6, 17]: 45
Plant response rating, Blackgrass [6, 18]: 60
Plant response rating, Blackgrass [6, 19]: 10
Plant response rating, Blackgrass [6, 20]: 50
Plant response rating, Blackgrass [6, 21]: 55
Blackgrass plant response rating [6, 22]: 60
Blackgrass plant response rating [6, 23]: 25
Plant response rating, Pigweed [7, 16]: 65
Plant response rating, Pigweed [7, 17]: 95
Plant response rating, Pigweed [7, 18]: 98
Plant response rating, Pigweed [7, 19]: 70
Plant response rating, Pigweed [7, 20]: 75
Plant response rating, Pigweed [7, 21]: 100
Pigweed plant response rating [7, 22]: 100
Plant response rating, Corn (corn (Zea mays); [16]): 5
Plant response rating, Corn (corn (Zea mays); [17]): 10
Plant response rating, Corn (corn (Zea mays); [18]): 15
Plant response rating, Corn (corn (Zea mays); [19]): 0
Plant response rating, Corn (corn (Zea mays); [20]): 0
Plant response rating, Corn (corn (Zea mays); [21]): 20
Corn plant response rating (corn (Zea mays); [22]): 35
Corn plant response rating (corn (Zea mays); [23]): 10
Plant response rating, Ryegrass, Italian [8, 16]: 90
Plant response rating, Ryegrass, Italian [8, 17]: 95
Plant response rating, Ryegrass, Italian [8, 18]: 95
Plant response rating, Ryegrass, Italian [8, 19]: 95
Plant response rating, Ryegrass, Italian [8, 20]: 95
Plant response rating, Ryegrass, Italian [8, 21]: 90
Ryegrass, Italian plant response rating [8, 22]: 95
Plant response rating, Morningglory [9, 16]: 98
Plant response rating, Morningglory [9, 17]: 100
Plant response rating, Morningglory [9, 18]: 100
Plant response rating, Morningglory [9, 19]: 85
Plant response rating, Morningglory [9, 20]: 95
Plant response rating, Morningglory [9, 21]: 98
Morningglory plant response rating [9, 22]: 100
